Assays:
[1] = Mice pharmacokinetic evaluation experiment; assay type: in vivo; settings: male, ICR, mouse, mice plasma; for Vd / half-life: IV 1 mg/kg; for AUC / Cmax: PO 100 mg/kg
Excerpt: Purpose of the experiment: male ICR mice were used as test animals to determine the drug concentration in plasma at different time points after intravenous and intragastric administration of test compounds by LC/MS/MS method. The pharmacokinetic behavior of the test compound in mice was studied to evaluate its pharmacokinetic characteristics.
Experimental protocol: laboratory animals: twelve healthy adult male ICR mice, weighing about 30 g, were randomly divided into two groups, 6 mice in IV group and 6 mice in PO group, N=3/time point, with semi-continuous blood collection. Animals were purchased from Vital River Laboratory Animal Technology Co., Ltd.
Drug preparation: IV group: taking 10 mL sample solution as an example, weighing 2 mg sample, followed by adding 0.5 mL DMSO, […], then adding […] HP-β-CD, finally dilute to 10 mL with water, stirring and ultrasound to reach 0.2 mg/mL clear state. PO group: weighing an appropriate amount of samples and preparing them according to the solvent ratio of the IV group, and evenly reaching the state of 10 mg/mL after stirring and ultrasound. Administration: after fasting for one night, intravenous administration was performed in the IV group, with an administration volume of 5 mL/kg and a dose of 1 mg/kg: the PO group was administered intragastrically a dose volume of 10 mL/kg and a dose of 100 mg/kg.
Experimental operation: after the test compounds were administered to the male ICR mice in the intravenous injection group and the intragastric administration group, the blood 110 ul were collected at time points of 0.25, 0.5, 1, 2, 4, 7, and 24 h, and stored in a commercial anticoagulant tube pre-filled with K2EDTA. The plasma was separated by centrifugation for 15 min and stored at −70° C. Animals were fed 4 h after administration. The plasma levels of test compounds following intravenous and intragastric administration in mice were determined by LC/MS/MS method. The linear range of the method was 1-3000 ng/ml; Plasma samples were analyzed after treatment with acetonitrile precipitated protein.

[2] = tested on: p-ERK in AGS cells (KRAS^G12D mutation); experiment: Cell p-ERK detection assay; assay type: cell-based, human; settings: 3 h incubation, HTRF
Outline: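 AGS cells (KRAS G12D, ~20,000/well in F12K+10% FBS) treated next day with compound at 3.16-fold dilutions, 0.1% DMSO final, for 3 h. Lysates assayed for ERK phospho-T202/Y204 by HTRF after 4 h; inhibition vs DMSO and blank, IC50 from four-parameter fit.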

[3] = target: KRAS^G12D mutant protein binding to RBD region fragment of RAF1 protein (Homo sapiens (Human), UniProt P01116, G12D); experiment: KRAS-RAF1 binding assay (HTRF), KRAS G12D; settings: His-KRAS^G12D, GST-RAF1-RBD, GTP
Chain of KRAS^G12D mutant protein binding to RBD region fragment of RAF1 protein (P01116-2 other isoform, or with tags, fused parts or gaps G12D): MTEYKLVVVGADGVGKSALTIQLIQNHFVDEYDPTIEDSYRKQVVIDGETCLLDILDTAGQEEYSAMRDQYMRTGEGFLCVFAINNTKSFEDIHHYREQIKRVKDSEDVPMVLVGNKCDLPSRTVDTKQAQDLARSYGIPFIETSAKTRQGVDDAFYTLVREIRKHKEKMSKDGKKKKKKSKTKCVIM
Description: (§1) GST-RAF1-RBD was purchased from BPS Bioscience; Cat. NO.: 100519; KRAS^G12D was purchased from BPS Bioscience; Cat. NO.: 100623; KRAS^wt was purchased from Reactionbiology; GTP was purchased from Sigma; Cat. NO.: G8877; Mab Anti GST-XL665 was purchased from cisbio; Cat. NO.: 61GSTXLF; Eu-W1024-anti-6×HIS was purchased from PE; Cat. NO.: AD0111; ProxiPlate-384-Plates was purchased from PerkinElmer; Cat. NO.: 6008289; DMSO was purchased from VWR AMRESCO; Cat. NO.: 0231-500ML; microplate reader was purchased from PerkinElmer; Cat. NO.: Envison;
(§2) This experiment is intended to investigate the inhibitory effect of compounds on the binding of KRAS^G12D mutant protein or KRAS^Wt (wild type) protein to fragments of the RBD region fragment of RAF1 protein. A 500×3-fold gradient concentration stock of compound was prepared using DMSO and diluted 50-fold into a 10× stock of compound using reaction buffer. To the reaction wells of an ELISA plate (ProxiPlate-384-Plates), was first added 3 µL of His-KRAS^G12D protein or KRAS^wt protein, then added 1 μL of 200 µM GTP and incubated for 30 min, then added 2 μL of 10× compound or reaction buffer with 2% DMSO (positive control) and incubated for 30 min, then added 4 μL of GST-RAF1-RBD protein or reaction buffer (negative control) and incubated for 15 min, then added […] anti-His antibody and XL665-labeled anti-GST antibody mixed well in advance and incubated for 60 min before reading HTRF signal by microplate reader. The inhibition ratio of compounds on KRAS protein (G12D mutant or wild type) and RAF1 binding was calculated IR (%)=(positive control signal-compound well signal)/(positive control signal-negative control signal)×100% and IC50 values were calculated by fitting compound concentrations and corresponding inhibition ratios using the Prism 8 four-parameter method. […] While the inhibition IC50 values of the compounds on the binding of KRAS^wt (wild type) protein to the RBD region fragment of RAF1 protein was more than 40 nM or 100 nM, or more than 500 nM, or even more than 1 μM or 2 μM.

[4] = tested on: AsPC-1 cells (KRAS^G12D mutation); experiment: Cell proliferation inhibition assay (3D, CellTiter-Glo), AsPC-1; assay type: cell-based, human; settings: 3D cell model, 5 days
Outline: (§3)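 3D spheroids of AsPC-1 (800 cells/well, RPMI-1640) or AGS (400 cells/well, F-12K), 10% FBS, seeded overnight, then exposed 5 days to 3.16-fold compound dilutions (0.1% DMSO final). CellTiter-Glo 3D luminescence gives inhibition relative to DMSO and medium blanks; IC50 from four-parameter fit.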

[5] = tested on: AGS cells (KRAS^G12D mutation); experiment: Cell proliferation inhibition assay (3D, CellTiter-Glo), AGS; assay type: cell-based, human; settings: 3D cell model, 5 days
Outline: as §3

[6] = target: KRAS^wt (wild type) protein binding to RBD region fragment of RAF1 protein (Homo sapiens (Human), UniProt P01116); experiment: KRAS-RAF1 binding assay (HTRF), KRAS wild type; settings: GST-RAF1-RBD, GTP
Chain of KRAS^wt (wild type) protein binding to RBD region fragment of RAF1 protein (P01116-2 other isoform, or with tags, fused parts or gaps): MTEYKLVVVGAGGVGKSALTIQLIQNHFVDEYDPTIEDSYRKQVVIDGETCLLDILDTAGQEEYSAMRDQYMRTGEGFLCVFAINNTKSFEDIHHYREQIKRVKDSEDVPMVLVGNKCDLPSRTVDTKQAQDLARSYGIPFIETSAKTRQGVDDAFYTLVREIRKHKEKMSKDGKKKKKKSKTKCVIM
Description: as §1, §2

| IC50 [2] [nM] | IC50 [4] [nM] | IC50 [5] [nM] | SMILES | Vd [1] [L/kg] | half-life [1] [min] | AUC [1] [ng·h/mL] | Cmax [1] [ng/mL] | IC50 ([2]; Homo sapiens, AGS, 3 h) [nM] | IC50 [3] [nM] | IC50 ([4]; Homo sapiens, ASPC1, 120 h) [nM] | IC50 ([5]; Homo sapiens, AGS, 120 h) [nM] | IC50 [6] [nM] |
| --- | --- | --- | --- | --- | --- | --- | --- | --- | --- | --- | --- | --- |
| – | – | – | C#Cc1c(F)ccc2cc(O)cc(-c3ncc4c(N5CC6CCC(C5)N6)nc(OC[C@@]56CCCN5C[C@H](F)C6)nc4c3F)c12 [MRTX1133, reference compound] | 14.1 | 309 | 745 | 279 | – | – | – | – | – |
| – | – | – | C#Cc1cccc2cc(O)cc(-c3ncc4c(N5C[C@H]6CC[C@@H](C5)N6)nc(OCC56CCCN5CC=C6CC)nc4c3F)c12 (stereo partly drawn) [Example Z16, 4-(4-((1R,5S)-3,8-diazabicyclo[3.2.1]octan-3-yl)-2-((7-ethyl-2,3-dihydro-1H-pyrrolizin-7a(5H)-yl)methoxy)-8-fluoropyrido[4,3-d]pyrimidin-7-yl)-5-ethynylnaphthalen-2-ol] | – | – | – | – | 54.9 | 60.7 | 555 | 92.6 | > 1000 |
| – | – | – | C#Cc1cccc2cc(O)cc(-c3ncc4c(N5C[C@H]6CC[C@@H](C5)N6)nc(OCC56CC(=C)CN5CC(F)C6)nc4c3F)c12 (stereo partly drawn) [Example Z17, 4-(4-((1R,5S)-3,8-diazabicyclo[3.2.1]octan-3-yl)-8-fluoro-2-((2-fluoro-6-methylenetetrahydro-1H-pyrrolizine 7a(5H)-yl)methoxy)pyrido[4,3-d]pyrimidin-7-yl)-5-ethynylnaphthalen-2-ol] | – | – | – | – | 1.16 | 50 | 35.7 | 6.8 | 64.3 |
| – | – | – | C#Cc1c(F)ccc2cc(O)cc(-c3ncc4c(N5C[C@H]6CC[C@@H](C5)N6)nc(OCC56CC(=C)CN5CC(=C)C6)nc4c3F)c12 [Example Z194, 4-(4-((1R,5S)-3,8-diazabicyclo[3.2.1]octan-3-yl)-2-((2,6-dimethylenetetrahydro-1H-pyrrolizin-7a(5H)-yl)methoxy)-8-fluoropyrido[4,3-d]pyrimidin-7-yl)-5-ethynyl-6-fluoronaphthalen-2-ol] | 16.9 | 672 | 2840 | 560 | 0.69 | – | 4.6 | 1.4 | – |
| – | – | – | C#Cc1cccc2cc(O)cc(-c3ncc4c(N5C[C@H]6CC[C@@H](C5)N6)nc(OCC56CCN5CC(=C)C6)nc4c3F)c12 (stereo partly drawn) [Example Z19, 4-(4-((1R,5S)-3,8-diazabicyclo[3.2.1]octan-3-yl)-8-fluoro-2-((3-methylene-1-azabicyclo[3.2.0]heptan-5-yl)methoxy)pyrido[4,3-d]pyrimidin-7-yl)-5-ethynylnaphthalen-2-ol] | – | – | – | – | 9.03 | 46 | 68.3 | 31.7 | 67.8 |
| 2.86 | 9.3 | 7.7 | C#Cc1cccc2cc(O)cc(-c3c(F)cc4c(N5C[C@H]6CC[C@@H](C5)N6)nc(OCC56CCCN5CC(=C)C6)nc4c3F)c12 (some centres unmarked) [Example Z20] | – | – | – | – | – | 105 | – | – | 110 |
| – | – | – | C#Cc1c(F)ccc2cc(O)cc(-c3ccc4c(N5C[C@H]6CC[C@@H](C5)N6)nc(OCC56CCCN5CCC6)nc4c3F)c12 [Example Z9, 4-(4-((1R,5S)-3,8-diazabicyclo[3.2.1]octan-3-yl)-8-fluoro-2-((tetrahydro-1H-pyrrolizin-7a(5H)-yl)methoxy)quinazolin-7-yl)-5-ethynyl-6-fluoronaphthalen-2-ol] | – | – | – | – | 23.7 | 79.6 | 300 | 145 | 261 |
| – | – | – | C#Cc1cccc2cc(O)cc(-c3ncc4c(N5C[C@H]6C=C[C@@H](C5)N6)nc(OC[C@@]56CCCN5C[C@H](F)C6)nc4c3F)c12 [Example Z7, 4-(4-((1R,5S)-3,8-diazabicyclo[3.2.1]oct-6-en-3-yl)-8-fluoro-2-(((2R,7aS)-2-fluorotetrahydro-1H-pyrrolizin-7a(5H)-yl)methoxy)pyrido[4,3-d]pyrimidin-7-yl)-5-ethynylnaphthalen-2-ol] | – | – | – | – | 12 | 72.6 | 433 | 32.6 | 1030 |
| 7.57 | 75.5 | 45.3 | C#Cc1cccc2cc(O)cc(-c3ncc4c(N5CC6CCC(C5)N6)nc(OCC56CCCN5CCC(=C)C6)nc4c3F)c12 [Example Z18, 4-(4-((1R,5S)-3,8-diazabicyclo[3.2.1]octan-3-yl)-8-fluoro-2-((7-methylenehexahydroindolin-8a(1H)-yl)methoxy)pyrido[4,3-d]pyrimidin-7-yl)-5-ethynylnaphthalen-2-ol] | – | – | – | – | – | 59.4 | – | – | > 1000 |
| – | – | – | C#Cc1cccc2cc(O)cc(-c3ncc4c(N5C[C@H]6C=C[C@@H](C5)N6)nc(OCC56CCCN5CC(F)(F)C6)nc4c3F)c12 (stereo partly drawn) [Example Z15, 4-(4-((1R,5S)-3,8-diazabicyclo[3.2.1]oct-6-en-3-yl)-2-((2,2-difluorotetrahydro-1H-pyrrolizin-7a(5H)-yl)methoxy)-8-fluoropyrido[4,3-d]pyrimidin-7-yl)-5-ethynylnaphthalen-2-ol] | – | – | – | – | 60.7 | 33 | 947 | 194 | > 3000 |
| – | – | – | C#Cc1cccc2cc(O)cc(-c3ncc4c(N5C[C@H]6CC[C@@H](C5)N6)nc(OCC56CCCN5CC(=C(C)C)C6)nc4c3F)c12 (stereo partly drawn) [Example Z14, 4-(4-((1R,5S)-3,8-diazabicyclo[3.2.1]octan-3-yl)-8-fluoro-2-((2-(propan-2-ylidene)tetrahydro-1H-pyrrolizin-7a(5H)-yl)methoxy)pyrido[4,3-d]pyrimidin-7-yl)-5-ethynylnaphthalen-2-ol] | – | – | – | – | 10.1 | 39.6 | 143 | 27.4 | 110 |

From patent publication US20240270758A1, “PYRIDINO-OR PYRIMIDO-CYCLIC COMPOUND, PREPARATION METHOD THEREFOR AND MEDICAL USE THEREOF” (Genfleet Therapeutics (Shanghai) Inc., priority 2021, published 2024)
